Each structure is given as a SMILES string.

Here are results for 16 molecules from patent publication US9932311B2, “Antidiabetic tricyclic compounds” (Merck Sharp & Dohme Corp., priority 2013, dated 2018).

The target of assay [1] is T1, Human GPR40 (Homo sapiens, UniProt O14842). The assay is described as follows: FLIPR assay (agonist-induced calcium mobilization). The assay is classed as cell-based. On the set-up: expressed in transfected cells. The conditions noted are these: GPR40/CHO NFAT BLA cells. On the procedure:
(§1) Human and mouse GPR40 stable cell-lines were generated in CHO cells stably expressing NFAT BLA (Beta-lactamase). A human GPR40 stable cell-line was generated in HEK cells stably expressing the aequorin expressing reporter. The expression plasmids were transfected using lipofectamine (Life Technologies) following manufacturer's instructions. Stable cell-lines were generated following drug selection.
FLIPR (Fluorimetric Imaging Plate Reader, Molecular Devices) assays were performed to measure agonist-induced calcium mobilization of the stable clones. For the FLIPR assay, one day before assay, GPR40/CHO NFAT BLA cells were seeded into black-wall-clear-bottom 384-well plates (Costar) at 1.4×10e4 cells/20 μL medium/well. The cells were incubated with 20 μl/well of the assay buffer (HBSS, 0.1% BSA, 20 mM HEPES, 2.5 mM probenecid, pH 7.4) containing 8 μM fluo-4, AM, 0.08% pluronic acid at room temperature for 100 minutes. Fluorescence output was measured using FLIPR. Compounds were dissolved in DMSO and diluted to desired concentrations with assay buffer. 13.3 μL/well of compound solution was added.

Assay [2] concerns the target T1, Human GPR40. As to the kind of experiment: Inositol Phosphate Turnover (IP1) Assay 1. The assay is classed as cell-based. On the set-up: expressed in transfected cells; host or cells: HEK cells stably expressing the aequorin reporter. The conditions noted are these: HEK cells stably expressing human GPR40, 96-well, 3H-inositol labeling, SPA beads. On the procedure: as §1
The assay was performed in 96-well format. HEK cells stably expressing human GPR40 were plated to be 60-80% confluent within 72 h. After 72 h, the plates were aspirated and the cells washed with inositol-free DMEM (ICN). The wash media was replaced with 150 μL of 3H-inositol labeling media (inositol-free media containing 0.4% human albumin or 0.4% mouse albumin, 1× pen/strep antibiotics, glutamine, 25 mM HEPES to which was added 3H-myo-inositol NEN #NET114A 1 mCi/mL, 25 Ci/mmol diluted 1:150 in loading media with a final specific radioactivity of 1 μCi/150 μL). Alternatively, the human and mouse albumin can be added after the overnight labeling step before the addition of LiCl.
The assay was typically run the next day after 18 h labeling. On the day of the assay, 5 μL of 300 mM LiCl was added to all wells and incubated at 37 degrees for 20 min 0.75 μL of 200× compounds were added and incubated with the cells for 60 min at 37 degrees. The media was then aspirated off and the assay terminated with the addition of 60 μL 10 mM formic acid. The cells were lysed for 60 min at room temperature. 15-30 μL of lysate was mixed with 70 μL/1 mg YSi SPA beads (Amersham) in clear bottom Isoplates. The plates were shaken for 2 h at room temperature. Beads were allowed to settle and the plates were counted in the Wallac Microbeta.

T1 sequence (O14842 whole entry): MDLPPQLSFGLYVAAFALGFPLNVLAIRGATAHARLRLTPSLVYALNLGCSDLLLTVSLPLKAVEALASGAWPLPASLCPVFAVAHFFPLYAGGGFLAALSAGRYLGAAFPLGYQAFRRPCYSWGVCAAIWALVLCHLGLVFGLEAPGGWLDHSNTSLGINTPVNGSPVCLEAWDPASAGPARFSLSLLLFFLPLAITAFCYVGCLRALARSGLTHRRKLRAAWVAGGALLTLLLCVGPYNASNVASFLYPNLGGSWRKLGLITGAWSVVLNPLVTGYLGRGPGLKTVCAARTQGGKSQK

Usually EC50 stands for the concentration giving half of the maximal effect. For the molecule `CC(C)(O)CCOc1cc(F)c(-c2cc(COc3cc4c(cn3)[C@H]3[C@@H](C4)[C@@H]3C(=O)O)c(F)cc2C(F)(F)F)c(F)c1` [Example 10, (5aR,6S,6aS)-3-((2′,4,6′-trifluoro-4′-(3-hydroxy-3-methylbutoxy)-6-(trifluoromethyl)-[1,1′-biphenyl]-3-yl)methoxy)-5,5a,6,6a-tetrahydrocyclo-propa[4,5]cyclopenta [1,2-c]pyridine-6-carboxylic acid], the EC50 at Human GPR40 [1] is 6.4 nM; on Human GPR40 [2] it was 27.2 nM.
For `Cc1cc(OCCC2(O)COC2)ccc1-c1cc(COc2cc3c(cn2)[C@H]2[C@@H](C3)[C@@H]2C(=O)O)c(F)cc1C(F)(F)F` [Example 14, (5aR,6S,6aS)-3-((4-fluoro-4′-(2-(3-hydroxyoxetan-3-yl)ethoxy)-2′-methyl-6-(trifluoromethyl)-[1,1′-biphenyl]-3-yl)methoxy)-5,5a,6,6a-tetrahydrocyclopropa[4,5]cyclopenta[1,2-c]pyridine-6-carboxylic acid], in that order: 10.4 nM and 5.54 nM.
Take `Cc1nc(OCCC(C)(C)O)ccc1-c1cc(COc2cc3c(cn2)[C@H]2[C@@H](C3)[C@@H]2C(=O)O)c(F)cc1C(F)(F)F` [Example 3, (5aR,6S,6aS)-3-((2-fluoro-5-(6-(3-hydroxy-3-methyl-butoxy)-2-methyl-pyridin-3-yl)-4-(trifluoromethyl)-benzyl)-oxy)-5,5a, 6,6a-tetrahydro-cyclopropa[4,5] cyclopenta[1,2-c] pyridine-6-carboxylic acid]: the EC50 at Human GPR40 [1] is 1.52 nM; on Human GPR40 [2] it was 4.95 nM.
For `Cc1cc(OCCC(C)(C)O)ccc1-c1cc(COc2cc3c(cn2)[C@H]2[C@@H](C3)[C@@H]2C(=O)O)c(F)cc1C(F)(F)F` [Example 1], in that order: 16.7 nM and 9.89 nM.
At Human GPR40 [2], `Cc1cc(OCCC(O)C(C)(C)O)cc(C)c1-c1cc(COc2cc3c(cn2)[C@H]2[C@@H](C3)[C@@H]2C(=O)O)c(F)cc1F` (stereo partly drawn) [Example 18, (5aR,6S,6aS)-3-((4′-((3,4-dihydroxy-4-methylpentyl)oxy)-4,6-difluoro-2′,6′-dimethyl-[1,1′-biphenyl]-3-yl)methoxy)-5,5a,6,6a-tetrahydrocycloprop[4,5]cyclopenta[1,2-c]pyridine-6-carboxylic acid] displayed an EC50 of 19.2 nM.
As to `CC(C)(O)CCOc1ccc(-c2cc(COc3cc4c(cn3)[C@H]3[C@@H](C4)[C@@H]3C(=O)O)c(F)cc2C(F)(F)F)cc1` [Example 5, (5aR,6S,6aS)-3-((4-fluoro-4′-(3-hydroxy-3-methylbutoxy)-6-(trifluoromethyl)-[1,1′-biphenyl]-3-yl)methoxy)-5,5a,6,6a-tetrahydrocyclopropa[4,5]cyclopenta[1,2-c]pyridine-6-carboxylic acid], the EC50 on Human GPR40 [1] worked out at 24.9 nM; on Human GPR40 [2], 6.24 nM.
For `CC(C)(O)CCOc1ccc(-c2cc(COc3cc4c(cn3)[C@H]3[C@@H](C4)[C@@H]3C(=O)O)c(F)cc2C(F)(F)F)c(C(F)F)c1` [Example 13, (5aR,6S,6aS)-3-((2'-(difluoromethyl)-4-fluoro-4'-(3-hydroxy-3-methyl-butoxy)-6-(trifluoromethyl)-[1,1'-biphenyl]-3-yl)-methoxy)-5,5a,6,6a-tetra-hydrocyclo-propa[4,5]cyclopenta [1,2-c]pyridine-6-carboxylic acid], in that order: 9.66 nM and 5.94 nM.
With `CC(C)(O)CCOc1ccc(-c2cc(COc3cc4c(cn3)[C@H]3[C@@H](C4)[C@@H]3C(=O)O)c(F)cc2C(F)(F)F)cc1F` [Example 6, (5aR,6S,6aS)-3-((3′,4-difluoro-4′-(3-hydroxy-3-methyl-butoxy)-6-(trifluoro-methyl)-[1,1′-biphenyl]-3-yl)methoxy)-5,5a,6,6a-tetrahydrocyclopropa [4,5]cyclopenta[1,2-c] pyridine-6-carboxylic acid], the EC50 stood at 10.9 nM at Human GPR40 [1] and 14.7 nM at Human GPR40 [2].
The matching figures for `Cc1cc(OCCC(C)(C)O)ccc1-c1cc(COc2cc3c(cn2)[C@H]2[C@@H](C3)[C@@H]2C(=O)O)c(F)cc1C(F)F` [Example 4, (5aR,6S,6aS)-3-((6-(difluoro-methyl)-4-fluoro-4′-(3-hydroxy-3-methyl-butoxy)-2′-methyl-[1,1′-biphenyl]-3-yl)methoxy)-5,5a,6,6a-tetrahydrocyclo-propa[4,5] cyclopenta[1,2-c] pyridine-6-carboxylic acid]: 14.4 nM and 5.25 nM.
For the molecule `CC(C)(O)CCOc1ncc(-c2cc(COc3cc4c(cn3)[C@H]3[C@@H](C4)[C@@H]3C(=O)O)c(F)cc2C(F)(F)F)cc1F` [Example 15, (5aR,6S,6aS)-3-((2-fluoro-5-(5-fluoro-6-(3-hydroxy-3-methylbutoxy)pyridin-3-yl)-4-(trifluoromethyl)benzyl)oxy)-5,5a,6,6a-tetrahydrocyclopropa[4,5]cyclopenta[1,2-c]pyridine-6-carboxylic acid], the EC50 was 4.88 nM on Human GPR40 [1] and 7.97 nM on Human GPR40 [2].
Turning to `CC(O)(CCOc1ccc(-c2cc(COc3cc4c(cn3)[C@H]3[C@@H](C4)[C@@H]3C(=O)O)c(F)cc2C(F)(F)F)cc1)C(F)F` (stereo partly drawn) [Example 12, (5aR,6S,6aS)-3-((4′-(4,4-difluoro-3-hydroxy-3-methylbutoxy)-4-fluoro-6-(trifluoromethyl)-[1,1′-biphenyl]-3-yl)methoxy)-5,5a,6,6a-tetrahydrocyclopropa[4,5]cyclopenta[1,2-c]pyridine-6-carboxylic acid], the EC50 was determined as 12.5 nM at Human GPR40 [1] and 20.3 nM at Human GPR40 [2].
On to `CC(C)(O)CCOc1ccc(-c2cc(COc3cc4c(cn3)[C@H]3[C@@H](C4)[C@@H]3C(=O)O)c(F)cc2C(F)(F)F)c(F)c1` [Example 7, (5aR,6S,6aS)-3-((2′,4-difluoro-4′-(3-hydroxy-3-methylbutoxy)-6-(trifluoro-methyl)-[1,1′-biphenyl]-3-yl)methoxy)-5,5a,6,6a-tetrahydrocyclopropa [4,5]cyclopenta[1,2-c] pyridine-6-carboxylic acid], for which the values for the EC50 on Human GPR40 [1] and at Human GPR40 [2] were 11.2 nM and 11.4 nM, respectively.
For `CC(C)(O)CCOc1ccc(-c2cc(COc3cc4c(cn3)[C@H]3[C@@H](C4)[C@@H]3C(=O)O)c(F)cc2C(F)F)cc1F` [Example 11, (5aR,6S,6aS)-3-((6-(di-fluoro-methyl)-3',4-di-fluoro-4'-(3-hydroxy-3-methyl-butoxy)-[1,1'-biphenyl]-3-yl)methoxy)-5,5a,6,6a-tetrahydro-cyclopropa[4,5]cyclo-penta[1,2-c]pyridine-6-carboxylic acid], the EC50 on Human GPR40 [1] came out at 16.7 nM; on Human GPR40 [2], 17.6 nM.
For `CS(=O)(=O)CCCOc1ccc(-c2cc(COc3cc4c(cn3)[C@H]3[C@@H](C4)[C@@H]3C(=O)O)c(F)cc2C(F)(F)F)c(F)c1` [Example 8, (5aR,6S,6aS)-3-((2′,4-difluoro-4′-(3-(methyl-sulfonyl)-propoxy)-6-(trifluoromethyl)-[1,1′-biphenyl]-3-yl)methoxy)-5,5a,6,6a-tetrahydro-cyclopropa[4,5]cyclo-penta[1,2-c]pyridine-6-carboxylic acid], in that order: 9.2 nM and 6.54 nM.
For `Cc1cc(OCCCS(C)(=O)=O)ccc1-c1cc(COc2cc3c(cn2)[C@H]2[C@@H](C3)[C@@H]2C(=O)O)c(F)cc1C(F)(F)F` [Example 2, (5aR,6S,6aS)-3-((4-fluoro-2′-methyl-4′-(3-(methyl-sulfonyl)-propoxy)-6-(tri-fluoromethyl)-[1,1′-biphenyl]-3-yl)methoxy)-5,5a,6,6a-tetrahydrocyclo-propa[4,5]cyclopenta [1,2-c]pyridine-6-carboxylic acid], in that order: 5.75 nM and 2.98 nM.
Molecule `Cc1nc(OCCC(C)(O)C(F)F)ccc1-c1cc(COc2cc3c(cn2)[C@H]2[C@@H](C3)[C@@H]2C(=O)O)c(F)cc1C(F)(F)F` (stereo partly drawn) [Example 16, (5aR,6S,6aS)-3-((5-(6-(4,4-difluoro-3-hydroxy-3-methyl-butoxy)-2-methyl-pyridin-3-yl)-2-fluoro-4-(trifluoro-methyl)-benzyl)-oxy)-5,5a,6,6a-tetrahydro-cyclo-propa[4,5]cyclopenta [1,2-c]pyridine-6-carboxylic acid] showed an EC50 at Human GPR40 [2] of 10.4 nM.
